# Assay results from ChEMBL document CHEMBL1201862, “PubChem BioAssay data set” (2004).
# Active and inactive are the calls of the source.
# What was measured:
# Beta-galactosidase = Beta-galactosidase (Escherichia coli, UniProt Q8VNN2); assay: PubChem AID 485352; format: functional
# [1] = molecular target: T1, Type-1 angiotensin II receptor (Homo sapiens, UniProt P30556); assay: antagonism of angiotensin II type 1 receptor – cell-based, uHTS hits, selectivity assay for APJ receptor antagonist project, dose response (AID 463214); format: functional;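 further: antagonist potency against angiotensin II stimulated AT1 response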
# T1 sequence (P30556 whole entry): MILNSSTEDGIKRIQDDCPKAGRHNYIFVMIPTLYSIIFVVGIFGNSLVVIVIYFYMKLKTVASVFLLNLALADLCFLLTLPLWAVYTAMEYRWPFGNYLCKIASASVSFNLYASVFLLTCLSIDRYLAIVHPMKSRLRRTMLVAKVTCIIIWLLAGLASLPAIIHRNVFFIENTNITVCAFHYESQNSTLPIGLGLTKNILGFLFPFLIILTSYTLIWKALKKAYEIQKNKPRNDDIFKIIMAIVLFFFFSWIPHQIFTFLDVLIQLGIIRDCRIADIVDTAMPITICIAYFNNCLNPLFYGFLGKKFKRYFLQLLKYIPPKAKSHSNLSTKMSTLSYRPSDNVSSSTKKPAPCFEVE
# [2] = molecular target: Heat shock protein HSP 90-alpha (Homo sapiens, UniProt P07900); format: functional, organism-based
# Vero = assay: cells; format: functional; conditions: Chlorocebus sabaeus
# [3] = Fluorescence-based cell-based high throughput dose response assay for inhibitors of the interaction of nucleotide-binding oligomerization domain containing 2 (NOD2) and the receptor-interacting serine-threonine kinase 2 (RIPK2).; format: functional; conditions: Homo sapiens
# P388/ADR = assay: cells; format: functional; conditions: Mus musculus
# SN12K1 = assay: cells; format: functional; conditions: Homo sapiens
# P388 = assay: cells; format: functional; conditions: Mus musculus
# INS1 = assay: INS-1E survival protection against cytokine death – cell-based, luminescence, retest, dose response (AID 449756); format: functional; conditions: Rattus norvegicus;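 further: cell death triggered by IL-1 beta plus TNF-alpha plus IFN-gamma mixture; protective hits raise ATP signal compared with cytokine alone wells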
# [4] = reduction of Shn3 3'UTR-driven luciferase in osteoblasts – cell-based, Clone20 osteoblasts, firefly luciferase, cherry-picked, dose response (AID 624132); format: functional;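 further: firefly luciferase luminescence from reporter carrying the Shn3 3'UTR in osteoblasts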
# [5] = loss of viability in HepG2 cells – cell-based, CellTiter-Glo, cherry-picked, cytotoxicity control for Shn3 inhibitor project, dose response (AID 624134); format: functional
# [6] = non-specific 3'UTR reporter inhibition in Clone20-Shn3RL – cell-based, Renilla luciferase, cherry-picked, counter-screen for Shn3 inhibitor project, dose response (AID 624133); format: functional
# [7] = blockers of HIV-1 envelope-mediated cell-cell fusion – cherry-pick, dose response (AID 652057); format: functional, cell-based
# [8] = viability loss in CEM21 cells – cell-based, CellTiter-Glo luminescence, cherry-picked, cytotoxicity control for viral fusion inhibitor project, dose response (AID 652042); format: functional;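 further: potency for signal decrease meaning cytotoxicity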
# [9] = blockers of HIV-1 ZM109 envelope-driven cell-cell fusion – HeLa effector, CEM target cells, luciferase, cherry-pick, dose response (AID 652058); format: functional, cell-based;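 further: luciferase signal from HIV-1 Env mediated cell-cell fusion of effector and target cells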
# [10] = off-target signal loss in HeLa-CEM21 co-culture – HeLa F-luc CTL cells, cherry-picked, counter-screen for HIV-1 Env fusion inhibitor project, dose response (AID 652040); format: functional, cell-based;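 further: potency for signal decrease marking cytotoxic or nonspecific inhibition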
# [11] = HIV-1 AD8 envelope cell-cell fusion blockers – cherry-pick, dose response (AID 652062); format: functional, cell-based;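 further: luciferase signal from cell-cell fusion driven by HIV-1 clade B AD8 Env; potency is for inhibitors of fusion seen as a drop in luminescence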
# Protein skinhead-1 = molecular target: T2, Protein skinhead-1 (Caenorhabditis elegans, UniProt P34707); format: functional
# T2 sequence (P34707 whole entry): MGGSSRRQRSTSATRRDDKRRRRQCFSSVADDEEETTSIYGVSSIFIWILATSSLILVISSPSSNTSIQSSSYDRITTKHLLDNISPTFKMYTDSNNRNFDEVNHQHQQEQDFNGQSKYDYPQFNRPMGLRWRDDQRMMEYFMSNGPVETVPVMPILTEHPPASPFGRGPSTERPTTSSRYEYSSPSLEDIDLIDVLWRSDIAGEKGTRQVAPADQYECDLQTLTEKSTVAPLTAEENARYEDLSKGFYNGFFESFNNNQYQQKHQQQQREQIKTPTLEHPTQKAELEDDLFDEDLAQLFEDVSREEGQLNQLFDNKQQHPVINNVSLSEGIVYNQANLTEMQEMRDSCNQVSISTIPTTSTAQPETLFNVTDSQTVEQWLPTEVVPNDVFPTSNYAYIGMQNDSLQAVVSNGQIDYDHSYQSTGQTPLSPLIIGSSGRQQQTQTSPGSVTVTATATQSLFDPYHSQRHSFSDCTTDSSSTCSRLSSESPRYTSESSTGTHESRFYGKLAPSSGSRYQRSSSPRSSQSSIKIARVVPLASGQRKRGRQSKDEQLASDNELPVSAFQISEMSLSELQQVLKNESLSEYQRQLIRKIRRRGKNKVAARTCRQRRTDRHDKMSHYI
# [12] = molecular target: T3, Small ubiquitin-related modifier 1 (Homo sapiens, UniProt P63165); assay: SUMO1 protein interaction blockers, potency – biochemical, fluorescence polarization, uHTS hits, dose response (AID 624382); format: functional; conditions: read-out: IC50_Mean
# [13] = molecular target: T3, Small ubiquitin-related modifier 1; assay: SUMO1 protein-protein binding blockers, potency – biochemical, FRET, dose response (AID 624383); format: functional; conditions: read-out: IC50_Mean
# Cytochrome P450 2D6 = Cytochrome P450 2D6 (Homo sapiens, UniProt P10635);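 further: CYP2D6 member of a cytochrome P450 panel assay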
# Cytochrome P450 1A2 = molecular target: T4, Cytochrome P450 1A2 (Homo sapiens, UniProt P05177);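 further: PubChem cytochrome P450 panel assay, CYP1A2 panel member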
# T4 sequence (P05177 whole entry): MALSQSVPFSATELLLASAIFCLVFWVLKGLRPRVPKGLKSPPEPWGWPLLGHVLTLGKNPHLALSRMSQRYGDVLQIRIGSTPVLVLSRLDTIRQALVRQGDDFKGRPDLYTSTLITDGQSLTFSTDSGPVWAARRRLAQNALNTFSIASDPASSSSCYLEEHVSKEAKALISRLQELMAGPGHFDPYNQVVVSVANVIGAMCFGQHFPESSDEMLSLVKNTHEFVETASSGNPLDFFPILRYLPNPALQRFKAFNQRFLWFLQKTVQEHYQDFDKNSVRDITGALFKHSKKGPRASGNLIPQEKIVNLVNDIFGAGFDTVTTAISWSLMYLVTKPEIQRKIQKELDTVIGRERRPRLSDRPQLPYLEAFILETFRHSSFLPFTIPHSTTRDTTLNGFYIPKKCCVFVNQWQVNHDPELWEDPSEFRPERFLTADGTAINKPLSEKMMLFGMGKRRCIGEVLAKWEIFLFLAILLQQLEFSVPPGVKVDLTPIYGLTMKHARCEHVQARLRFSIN
# Cytochrome P450 2C9 = Cytochrome P450 2C9 (Homo sapiens, UniProt P11712)
# Cytochrome P450 3A4 = Cytochrome P450 3A4 (Homo sapiens, UniProt P08684);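 further: CYP3A4 tested as one member of a cytochrome P450 panel screen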
# [14] = molecular target: T5, Probable nicotinate-nucleotide adenylyltransferase (Staphylococcus aureus (strain N315), UniProt P65502); format: functional, Staphylococcus aureus subsp. aureus N315;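 on IC50 Mean: confirmatory dose-response retesting of NadD inhibitor hits first found in an ultra-high-throughput screen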
# [15] = molecular target: T5, Probable nicotinate-nucleotide adenylyltransferase; format: functional, Staphylococcus aureus subsp. aureus N315; conditions: read-out: IC50_Mean
# [16] = molecular target: T6, Endoribonuclease toxin MazF (Escherichia coli K-12, UniProt P0AE70); assay: activation of MazEF endoribonuclease cleavage – biochemical, fluorescence, single-stranded RNA substrate, uHTS hits, dose response (AID 588481); format: functional
# T6 sequence (P0AE70 whole entry): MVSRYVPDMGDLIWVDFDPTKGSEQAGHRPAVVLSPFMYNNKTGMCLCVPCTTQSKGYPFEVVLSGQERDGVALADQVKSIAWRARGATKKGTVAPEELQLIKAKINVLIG
# [17] = molecular target: T6, Endoribonuclease toxin MazF; assay: substrate-only fluorescence increase artefacts – biochemical, single-stranded RNase substrate, counter-screen for MazEF activator project, dose response (AID 588502); format: functional
# T5 sequence (P65502 whole entry): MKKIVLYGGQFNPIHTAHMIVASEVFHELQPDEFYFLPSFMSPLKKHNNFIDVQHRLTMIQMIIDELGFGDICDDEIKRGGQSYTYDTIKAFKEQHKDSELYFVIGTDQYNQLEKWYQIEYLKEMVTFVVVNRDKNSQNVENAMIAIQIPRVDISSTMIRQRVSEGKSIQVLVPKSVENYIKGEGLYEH
# T3 sequence (P63165 whole entry): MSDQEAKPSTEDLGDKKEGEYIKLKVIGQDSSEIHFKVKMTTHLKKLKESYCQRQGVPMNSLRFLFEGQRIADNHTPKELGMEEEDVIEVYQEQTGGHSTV
# Sequence of Beta-galactosidase (Q8VNN2 whole entry): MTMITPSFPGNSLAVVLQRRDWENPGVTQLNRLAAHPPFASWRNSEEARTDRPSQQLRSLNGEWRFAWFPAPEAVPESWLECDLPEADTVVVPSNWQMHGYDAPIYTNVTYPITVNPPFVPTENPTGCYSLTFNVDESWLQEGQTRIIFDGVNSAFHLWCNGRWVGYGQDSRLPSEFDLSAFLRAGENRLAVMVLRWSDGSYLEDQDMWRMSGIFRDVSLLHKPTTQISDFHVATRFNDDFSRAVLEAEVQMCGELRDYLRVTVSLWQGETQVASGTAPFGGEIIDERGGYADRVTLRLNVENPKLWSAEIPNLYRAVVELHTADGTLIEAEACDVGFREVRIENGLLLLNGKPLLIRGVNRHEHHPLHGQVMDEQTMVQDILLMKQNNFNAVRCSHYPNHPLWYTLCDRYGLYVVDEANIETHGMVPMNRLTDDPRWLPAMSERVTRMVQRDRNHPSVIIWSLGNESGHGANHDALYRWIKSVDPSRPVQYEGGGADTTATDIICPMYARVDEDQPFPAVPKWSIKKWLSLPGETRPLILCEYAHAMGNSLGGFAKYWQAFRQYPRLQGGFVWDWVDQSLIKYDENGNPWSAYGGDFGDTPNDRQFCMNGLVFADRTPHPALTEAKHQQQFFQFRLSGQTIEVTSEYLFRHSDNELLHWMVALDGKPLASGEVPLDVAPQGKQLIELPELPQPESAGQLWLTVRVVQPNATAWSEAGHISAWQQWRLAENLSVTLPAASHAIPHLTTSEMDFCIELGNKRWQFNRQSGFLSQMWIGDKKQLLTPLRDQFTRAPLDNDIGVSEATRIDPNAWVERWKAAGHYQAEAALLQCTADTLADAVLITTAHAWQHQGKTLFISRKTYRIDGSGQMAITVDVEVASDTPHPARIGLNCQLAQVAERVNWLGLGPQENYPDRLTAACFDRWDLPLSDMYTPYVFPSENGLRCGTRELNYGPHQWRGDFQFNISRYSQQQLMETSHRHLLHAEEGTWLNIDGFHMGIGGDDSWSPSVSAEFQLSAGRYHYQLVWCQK
# Sequence of Cytochrome P450 2C9 (P11712 whole entry): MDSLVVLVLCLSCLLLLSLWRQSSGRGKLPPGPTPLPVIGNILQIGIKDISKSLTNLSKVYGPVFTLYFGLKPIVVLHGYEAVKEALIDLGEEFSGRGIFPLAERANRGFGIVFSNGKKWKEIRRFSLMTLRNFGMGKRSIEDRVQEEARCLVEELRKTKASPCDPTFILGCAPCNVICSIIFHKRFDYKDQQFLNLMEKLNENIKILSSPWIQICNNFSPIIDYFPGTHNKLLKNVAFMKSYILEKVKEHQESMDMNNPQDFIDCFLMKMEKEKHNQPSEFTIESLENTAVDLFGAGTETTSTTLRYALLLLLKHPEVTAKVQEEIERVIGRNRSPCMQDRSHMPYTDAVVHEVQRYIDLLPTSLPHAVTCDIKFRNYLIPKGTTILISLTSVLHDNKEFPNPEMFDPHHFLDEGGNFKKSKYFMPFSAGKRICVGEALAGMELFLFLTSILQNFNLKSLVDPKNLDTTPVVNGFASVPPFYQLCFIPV
# Sequence of Cytochrome P450 2D6 (P10635 whole entry): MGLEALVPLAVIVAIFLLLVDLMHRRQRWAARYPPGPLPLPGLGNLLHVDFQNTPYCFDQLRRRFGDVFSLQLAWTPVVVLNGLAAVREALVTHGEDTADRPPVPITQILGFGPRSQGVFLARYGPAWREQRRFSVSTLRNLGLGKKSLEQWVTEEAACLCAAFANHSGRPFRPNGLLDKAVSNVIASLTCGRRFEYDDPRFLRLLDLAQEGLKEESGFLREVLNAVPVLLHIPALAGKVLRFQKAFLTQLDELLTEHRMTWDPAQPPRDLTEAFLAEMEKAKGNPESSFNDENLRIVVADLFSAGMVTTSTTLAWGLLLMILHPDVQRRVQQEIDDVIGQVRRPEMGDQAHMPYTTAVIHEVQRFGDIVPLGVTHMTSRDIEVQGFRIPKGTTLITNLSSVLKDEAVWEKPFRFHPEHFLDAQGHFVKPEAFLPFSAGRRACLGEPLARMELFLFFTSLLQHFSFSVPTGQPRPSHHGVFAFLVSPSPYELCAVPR
# Sequence of Cytochrome P450 3A4 (P08684 whole entry): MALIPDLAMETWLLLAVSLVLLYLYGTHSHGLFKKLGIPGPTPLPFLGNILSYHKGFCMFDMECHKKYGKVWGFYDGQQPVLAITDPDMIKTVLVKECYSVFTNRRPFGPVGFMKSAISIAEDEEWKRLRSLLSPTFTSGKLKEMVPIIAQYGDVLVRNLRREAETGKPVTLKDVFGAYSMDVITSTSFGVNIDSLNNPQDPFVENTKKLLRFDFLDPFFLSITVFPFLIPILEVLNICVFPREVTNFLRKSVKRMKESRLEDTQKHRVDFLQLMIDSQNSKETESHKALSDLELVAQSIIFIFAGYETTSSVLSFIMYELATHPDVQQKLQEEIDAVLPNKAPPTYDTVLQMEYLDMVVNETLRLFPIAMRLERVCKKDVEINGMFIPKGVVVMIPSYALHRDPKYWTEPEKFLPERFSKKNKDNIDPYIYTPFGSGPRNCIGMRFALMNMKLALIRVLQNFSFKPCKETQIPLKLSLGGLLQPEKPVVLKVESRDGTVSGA
structure (smiles),measurement,setting,value
COc1cc(/C=C/[N+](=O)[O-])ccc1OC(=O)c1cccnc1,EC50,Beta-galactosidase,> 40 µM (inactive)
same,IC50,[1],5.87 µM (active)
same,AC50,[2],4.36 µM (active)
same,CC50,Vero,17.5 µM (active)
same,IC50,[3],1.82 µM (active)
O=C1CCCCN1,GI50,P388/ADR,> 1120 µM (inactive)
same,GI50,SN12K1,> 1120 µM (inactive)
same,GI50,P388,764 µM (inactive)
CC(C)(C)n1ncc2c(=O)n(Cc3cccc(Cn4cnc5c(cnn5C(C)(C)C)c4=O)c3F)cnc21,AC50,INS1,3.27 µM (active)
same,AC50,[4],1.09 µM (active)
same,AC50,[5],19.4 µM (active)
same,AC50,[6],0.84 µM (active)
same,AC50,[7],17.9 µM (active)
same,AC50,[8],35.2 µM (active)
same,AC50,[9],1.74 µM (active)
same,AC50,[10],35.4 µM (active)
same,AC50,[11],6.31 µM (active)
COc1ccc(S(=O)(=O)n2ccc(-c3ccc(OCCN(C)c4ccccn4)cc3)n2)cc1,IC50,Protein skinhead-1,> 100 µM (inactive)
same,AC50,[10],1.81 µM (active)
same,AC50,[11],6.63 µM (active)
CC(=O)O[C@H]1C(=O)O[C@@H]2C[C@H]3C(C)=CC(=O)[C@@H](O)[C@]3(C)[C@H]3[C@@]4(O)OC[C@]32[C@@H]1[C@@H](C)[C@H]4O,GI50,P388/ADR,1.66 µM (inactive)
same,GI50,SN12K1,0.0223 µM (active)
same,GI50,P388,0.133 µM (active)
O=c1[nH]c(=O)c2nc3c4ccccc4c4ccccc4c3nc2[nH]1,IC50,[12],> 66.6 µM (inactive)
same,IC50,[13],2.56 µM (active)
N#Cc1cccc(NC(=O)N2CC3(CCN(C(=O)Oc4ccccc4)CC3)C2)c1,AC50,Cytochrome P450 2D6,39.8 µM (inconclusive)
same,AC50,Cytochrome P450 1A2,15.8 µM (inconclusive)
same,AC50,Cytochrome P450 2C9,15.8 µM (inconclusive)
same,AC50,Cytochrome P450 3A4,inconclusive
C/C=C\C=C\C(=O)Nc1cccc(C2=NOC3(C2)C[C@@H](C(N)=O)N(C(=O)C(c2ccccc2)c2ccccc2)C3)c1 (stereo not given in full),IC50,[14],11.9 µM (active)
same,IC50,[15],22.8 µM (active)
Cc1ccc(-c2cc(C#N)c(=O)n(Cc3c(Cl)cccc3Cl)c2)cc1,EC50,[16],> 99 µM (inactive)
same,EC50,[17],41.9 µM (inactive)
CCOc1ccc2c(c1)S/C(=C\c1cccs1)C(=O)N2,EC50,[16],> 99 µM (inactive)
same,EC50,[17],> 99 µM (inactive)
